Measurements as given in US20240140933A1, “OXOINDOLINE COMPOUND FOR THE TREATMENT OF INFLAMMATORY DISEASES OR CANCER” (Hoffmann-La Roche Inc., priority 2021, published 2024).

The compounds below were run against PDHK1 (Homo sapiens (Human), UniProt Q15118) (assay: PDHK1 enzymatic assay (AlphaScreen, phosphorylation of PDHE1 S293)). Conditions: 1 nM PDHK1, 25 nM PDHE1, 20 μM ATP, 30° C. for 45 minutes.
Type: biochemical
From the text: Pyruvate dehydrogenase complex (PDHc) is an enzyme that catalyzes the reaction of pyruvate and a lipoamide to give the acetylated dihydrolipoamide and carbon dioxide. PDHc has three subunits E1, E2 and E3. E1 has 3 serine phosphorylation sites S293, S232, S300. If E1 was phosphorylated, PDH will be inactivated. PDHK can phosphorylate PDH protein (also named PDHE1) in PDH complex (PDC) to inactivate it.

Chain of PDHK1 (Q15118 29-436): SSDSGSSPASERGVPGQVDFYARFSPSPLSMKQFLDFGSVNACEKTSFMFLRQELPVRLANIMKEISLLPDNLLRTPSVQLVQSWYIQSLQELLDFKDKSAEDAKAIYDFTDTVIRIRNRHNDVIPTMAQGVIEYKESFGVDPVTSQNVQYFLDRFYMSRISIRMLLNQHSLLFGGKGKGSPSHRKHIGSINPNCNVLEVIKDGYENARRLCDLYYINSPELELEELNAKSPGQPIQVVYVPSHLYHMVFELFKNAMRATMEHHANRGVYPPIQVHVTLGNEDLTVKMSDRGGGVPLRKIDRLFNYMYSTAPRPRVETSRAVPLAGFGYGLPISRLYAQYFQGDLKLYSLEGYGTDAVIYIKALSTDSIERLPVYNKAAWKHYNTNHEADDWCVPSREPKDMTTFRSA

Question: For `CCNc1cc(F)cc2c1NC(=O)C2(C)N1CC[C@H](O)[C@@H](Nc2ccc(C#N)nc2)C1` (stereo partly drawn) [Example 50, 5-[[(3S,4S)-1-[7-(ethylamino)-5-fluoro-3-methyl-2-oxo-indolin-3-yl]-4-hydroxy-3-piperidyl]amino]pyridine-2-carbonitrile], which “Enzymatic IC50 against PDHK1” value is on record?
Answer: 0.014 µg/mL

Question: `C=CC(=O)N1CC2(CC(C(=O)N[C@@H]3CCCN(C4(C)C(=O)Nc5c(NCC)cc(F)cc54)C3)C2)C1` (stereo partly drawn) [Example 41, N-[(3R)-1-[7-(ethylamino)-5-fluoro-3-methyl-2-oxo-indolin-3-yl]-3-piperidyl]-2-prop-2-enoyl-2-azaspiro[3.3]heptane-6-carboxamide] was tested. Which “Enzymatic IC50 against PDHK1” value did it give?
Answer: 0.032 µg/mL

Question: How did the “Enzymatic IC50 against PDHK1” value turn out when `CCNc1cc(F)cc2c1NC(=O)C2(C)N1CCC[C@@H](NC(=O)c2cccc(OS(=O)(=O)F)c2)C1` (stereo partly drawn) [Example 44, 7-(ethylamino)-5-fluoro-3-[(3R)-3-[(3-fluorosulfonyloxybenzoyl)amino]-1-piperidyl]-3-methyl-2-oxo-indoline] was run?
Answer: 0.022 µg/mL

Question: For `CCNc1cc(F)cc2c1NC(=O)C2(C)N1CCC[C@@H](NC(=O)C2CCS(=O)(=O)CC2)C1` (stereo partly drawn) [Example 36, N-[(3R)-1-[7-(ethylamino)-5-fluoro-3-methyl-2-oxo-indolin-3-yl]-3-piperidyl]-1,1-dioxo-thiane-4-carboxamide], which “Enzymatic IC50 against PDHK1” value is on record?
Answer: 0.047 µg/mL

Question: How did the “Enzymatic IC50 against PDHK1” value turn out when `CCNc1cc(F)cc2c1NC(=O)C2(C)N1CCC[C@@H](Nc2ccc(C#N)cc2)C1` (stereo partly drawn) [Example 8, 4-[[(3R)-1-[7-(ethylamino)-5-fluoro-3-methyl-2-oxo-indolin-3-yl]-3-piperidyl]amino]benzonitrile] was run?
Answer: 0.022 µg/mL

Question: How did the “Enzymatic IC50 against PDHK1” value turn out when `CCNc1cc(F)cc2c1NC(=O)C2(C)N1C[C@@H](C)C[C@@H](Nc2ccc(C#N)nc2)C1` (stereo partly drawn) [Example 47, 5-[[(3R,5S)-1-[7-(ethylamino)-5-fluoro-3-methyl-2-oxo-indolin-3-yl]-5-methyl-3-piperidyl]amino]pyridine-2-carbonitrile] was run?
Answer: 0.019 µg/mL

Question: How did the “Enzymatic IC50 against PDHK1” value turn out when `CCNc1cc(F)cc2c1NC(=O)C2(C)N1CCC[C@@H](Nc2ccc(S(=O)(=O)F)cn2)C1` (stereo partly drawn) [Example 29, 6-[[(3R)-1-[7-(ethylamino)-5-fluoro-3-methyl-2-oxo-indolin-3-yl]-3-piperidyl]amino]pyridine-3-sulfonyl fluoride] was run?
Answer: 0.035 µg/mL

Question: For `CCNc1cc(F)cc2c1NC(=O)C2(C)N1CCC[C@@H](Nc2ccc(C#N)nn2)C1` (stereo partly drawn) [Example 16, 6-[[(3R)-1-[7-(ethylamino)-5-fluoro-3-methyl-2-oxo-indolin-3-yl]-3-piperidyl]amino]pyridazine-3-carbonitrile], which “Enzymatic IC50 against PDHK1” value is on record?
Answer: 0.047 µg/mL

Question: For `CCNc1cc(F)cc2c1NC(=O)C2(CC)N1CCC[C@@H](N(C(N)=O)c2ccc(C#N)nc2)C1` (stereo partly drawn) [Example 26, 1-(6-cyano-3-pyridyl)-1-[(3R)-1-[3-ethyl-7-(ethylamino)-5-fluoro-2-oxo-indolin-3-yl]-3-piperidyl]urea], which “Enzymatic IC50 against PDHK1” value is on record?
Answer: 0.067 µg/mL

Question: Which “Enzymatic IC50 against PDHK1” value does the source give for `CCNc1cc(F)cc2c1NC(=O)C2(CC)N1CCC[C@@H](N(C(C)=O)c2ccc(C#N)nc2)C1` (stereo partly drawn) [Example 25, N-(6-cyano-3-pyridyl)-N-[(3R)-1-[3-ethyl-7-(ethylamino)-5-fluoro-2-oxo-indolin-3-yl]-3-piperidyl]acetamide] here?
Answer: 0.142 µg/mL

Question: `CCNc1cc(F)cc2c1NC(=O)C2(C)N1CC[C@@H](O)[C@@H](Nc2ccc(C#N)nc2)C1` (stereo partly drawn) [Example 51, 5-[[(3S,4R)-1-[7-(ethylamino)-5-fluoro-3-methyl-2-oxo-indolin-3-yl]-4-hydroxy-3-piperidyl]amino]pyridine-2-carbonitrile] was tested. Which “Enzymatic IC50 against PDHK1” value did it give?
Answer: 0.017 µg/mL

Question: Which “Enzymatic IC50 against PDHK1” value does the source give for `CCNc1cc(F)cc2c1NC(=O)C2(C)N1CCC[C@@H](Nc2cnc(C#N)nc2)C1` (stereo partly drawn) [Example 17, 5-[[(3R)-1-[7-(ethylamino)-5-fluoro-3-methyl-2-oxo-indolin-3-yl]-3-piperidyl]amino]pyrimidine-2-carbonitrile] here?
Answer: 0.012 µg/mL

Question: `CCNc1cc(F)cc2c1NC(=O)C2(C)N1CCC[C@@H](Nc2ccc(OS(=O)(=O)F)nc2)C1` (stereo partly drawn) [Example 33, 7-(ethylamino)-5-fluoro-3-methyl-2-oxo-3-[(3R)-3-[(6-fluorosulfonyloxy-3-pyridyl)amino]-1-piperidyl]indoline] was tested. Which “Enzymatic IC50 against PDHK1” value did it give?
Answer: 0.068 µg/mL

Question: Which “Enzymatic IC50 against PDHK1” value does the source give for `C=CS(=O)(=O)N[C@H]1CN(C2(C)C(=O)Nc3c(NCC)cc(F)cc32)CC[C@@H]1c1ccccc1` (stereo partly drawn) [Example 53, N-[(3R,4R)-1-[7-(ethylamino)-5-fluoro-3-methyl-2-oxo-indolin-3-yl]-4-phenyl-3-piperidyl]ethenesulfonamide] here?
Answer: 0.015 µg/mL

Question: Which “Enzymatic IC50 against PDHK1” value does the source give for `CCNc1cc(F)cc2c1NC(=O)C2(C)N1CCC[C@@H](Nc2ccc(C(N)=O)nc2)C1` (stereo partly drawn) [Example 12, 5-[[(3R)-1-[7-(ethylamino)-5-fluoro-3-methyl-2-oxo-indolin-3-yl]-3-piperidyl]amino]pyridine-2-carboxamide] here?
Answer: 0.062 µg/mL

Question: How did the “Enzymatic IC50 against PDHK1” value turn out when `CCNc1cc(F)cc2c1NC(=O)C2(C)N1CC[C@H](c2ccccc2)[C@@H](Nc2ccc(C#N)nc2)C1` (stereo partly drawn) [Example 55, 5-[[(3R,4R)-1-[7-(ethylamino)-5-fluoro-3-methyl-2-oxo-indolin-3-yl]-4-phenyl-3-piperidyl]amino]pyridine-2-carbonitrile] was run?
Answer: 0.037 µg/mL

Question: `CCNc1cc(F)cc2c1NC(=O)C2(C)N1CCC[C@H](Nc2ccc(C(=O)O)nc2)C1` (stereo partly drawn) [Example 10, 5-[[(3S)-1-[7-(ethylamino)-5-fluoro-3-methyl-2-oxo-indolin-3-yl]-3-piperidyl]amino]pyridine-2-carboxylic acid] was tested. Which “Enzymatic IC50 against PDHK1” value did it give?
Answer: 0.059 µg/mL

Question: `CCNc1cc(F)cc2c1NC(=O)C2(C)N1CCC[C@@H](Nc2cc(C)c(S(=O)(=O)F)cn2)C1` (stereo partly drawn) [Example 30, 4-methyl-6-[[(3R)-1-[7-(ethylamino)-5-fluoro-3-methyl-2-oxo-indolin-3-yl]-3-piperidyl]amino]pyridine-3-sulfonyl fluoride] was tested. Which “Enzymatic IC50 against PDHK1” value did it give?
Answer: 0.065 µg/mL

Question: Which “Enzymatic IC50 against PDHK1” value does the source give for `CCNc1cc(F)cc2c1NC(=O)C2(C)N1C[C@H](F)C[C@@H](Nc2ccc(C#N)nc2)C1` (stereo partly drawn) [Example 45, 5-[[(3R,5R)-1-[7-(ethylamino)-5-fluoro-3-methyl-2-oxo-indolin-3-yl]-5-fluoro-3-piperidyl]amino]pyridine-2-carbonitrile] here?
Answer: 0.011 µg/mL

Question: `CCNc1cc(F)cc2c1NC(=O)C2(C)N1CC[C@H](c2ccccc2Oc2ccc(C#N)cc2)[C@@H](NC(C)=O)C1` (stereo partly drawn) [Example 58, N-[(3R,4R)-4-[2-(4-cyanophenoxy)phenyl]-1-[7-(ethylamino)-5-fluoro-3-methyl-2-oxo-indolin-3-yl]-3-piperidyl]acetamide] was tested. Which “Enzymatic IC50 against PDHK1” value did it give?
Answer: 0.03 µg/mL

Question: Which “Enzymatic IC50 against PDHK1” value does the source give for `CCNc1cc(F)cc2c1NC(=O)C2(C)N1CCC[C@@H](Nc2ccc(C(=O)CO)cc2)C1` (stereo partly drawn) [Example 19, 7-(ethylamino)-5-fluoro-3-[(3R)-3-[4-(2-hydroxyacetyl)anilino]-1-piperidyl]-3-methyl-indolin-2-one] here?
Answer: 0.016 µg/mL

Question: For `CCNc1cc(F)cc2c1NC(=O)C2(C)N1CC[C@H](c2ccccc2Oc2ccc(C(N)=O)cc2)[C@@H](NC(C)=O)C1` (stereo partly drawn) [Example 57, 4-[2-[(3R,4R)-3-acetamido-1-[7-(ethylamino)-5-fluoro-3-methyl-2-oxo-indolin-3-yl]-4-piperidyl]phenoxy]benzamide], which “Enzymatic IC50 against PDHK1” value is on record?
Answer: 0.019 µg/mL

Question: Which “Enzymatic IC50 against PDHK1” value does the source give for `CCNc1cc(F)cc2c1NC(=O)C2(C)N1CCC[C@@H](Nc2ccc(O)nc2)C1` (stereo partly drawn) [Example 21, 7-(ethylamino)-5-fluoro-3-[(3R)-3-[(6-hydroxy-3-pyridyl)amino]-1-piperidyl]-3-methyl-indolin-2-one] here?
Answer: 0.037 µg/mL

Question: How did the “Enzymatic IC50 against PDHK1” value turn out when `CCNc1cc(F)cc2c1NC(=O)C2(C)N1CCC[C@@H](Nc2ccc(C#N)cn2)C1` (stereo partly drawn) [Example 14, 6-[[(3R)-1-[7-(ethylamino)-5-fluoro-3-methyl-2-oxo-indolin-3-yl]-3-piperidyl]amino]pyridine-3-carbonitrile] was run?
Answer: 0.007 µg/mL

Question: For `CCNc1cc(F)cc2c1NC(=O)C2(C)N1CCC[C@@](C)(Nc2ccc(C#N)nc2)C1` (stereo partly drawn) [Example 23, 5-[[(3R)-1-[7-(ethylamino)-5-fluoro-3-methyl-2-oxo-indolin-3-yl]-3-methyl-3-piperidyl]amino]pyridine-2-carbonitrile], which “Enzymatic IC50 against PDHK1” value is on record?
Answer: 0.049 µg/mL

Question: For `CCNc1cc(F)cc2c1NC(=O)C2(C)N1CCC[C@@H](NC(=O)c2cc(F)c(O)c(F)c2)C1` (stereo partly drawn) [Example 35, N-[(3R)-1-[7-(ethylamino)-5-fluoro-3-methyl-2-oxo-indolin-3-yl]-3-piperidyl]-3,5-difluoro-4-hydroxy-benzamide], which “Enzymatic IC50 against PDHK1” value is on record?
Answer: 0.030 µg/mL

Same assay, conditions: 1 nM PDHK1, 25 nM PDHE1, 20 μM ATP, 30° C. for 45 minutes; read-out: Enzymatic IC50 against PDHK1 (converted)

Question: With `CCNc1cc(F)cc2c1NC(=O)[C@@]2(C)N1CC[C@@H](c2ccccc2)[C@@H](C(N)=O)C1` [Example 59B, (3R,4R)-1-[(3S)-7-(ethylamino)-5-fluoro-3-methyl-2-oxo-indolin-3-yl]-4-phenyl-piperidine-3-carboxamide] as the compound, how does the IC50 read?
Answer: 17.1 nM

Question: `CCNc1cc(F)cc2c1NC(=O)[C@@]2(C)N1CC[C@@H](c2ccccc2)[C@@H](C(=O)Nc2ccccc2)C1` [Example 61B, (3R,4R)-1-[(3S)-7-(ethylamino)-5-fluoro-3-methyl-2-oxo-indolin-3-yl]-N,4-diphenyl-piperidine-3-carboxamide] was tested. Which IC50 did it give?
Answer: 47.3 nM

Question: How did the IC50 turn out when `CCNc1cc(F)cc2c1NC(=O)[C@@]2(C)N1CC[C@@H](c2ccccc2)[C@@H](C(=O)NCc2ccccc2)C1` [Example 62B, (3R,4R)-N-benzyl-1-[(3S)-7-(ethylamino)-5-fluoro-3-methyl-2-oxo-indolin-3-yl]-4-phenyl-piperidine-3-carboxamide] was run?
Answer: 75.9 nM
